Measured values as given in the kinase profiling compilation of Christmann-Franck et al. (2016).

Key:
Test in all cases: KINOMEscan competition binding
Details in all cases: compound 10.0 µM
[1] = target: MST1R (human) (UniProt Q04912)
[2] = target: JAK2 JH1 catalytic (human) (UniProt O60674)
[3] = target: MAK (human) (UniProt P20794)
[4] = target: MAP2K5 (human) (UniProt Q13163)
[5] = target: RIOK2 (human) (UniProt Q9BVS4)
[6] = target: SRC (human) (UniProt P12931)
[7] = target: CAMK2G (human) (UniProt Q13555)
[8] = target: EPHA4 (human) (UniProt P54764)
[9] = target: RPS6KA2 KD1 (human) (UniProt Q15349)
[10] = target: EIF2AK1 (human) (UniProt Q9BQI3)
[11] = target: CIT (human) (UniProt O14578)
[12] = target: RIPK1 (human) (UniProt Q13546)
[13] = target: MAPK4 (human) (UniProt P31152)
[14] = target: DYRK1A (human) (UniProt Q13627)
[15] = target: TYK2 JH2 pseudokinase (human) (UniProt P29597)
[16] = target: DDR2 (human) (UniProt Q16832)
[17] = target: TGFBR2 (human) (UniProt P37173)
[18] = target: MAP4K4 (human) (UniProt O95819)
[19] = target: GRK4 (human) (UniProt P32298)
[20] = test system: EGFR (human), P00533 [L858R]
[21] = target: STK16 (human) (UniProt O75716)
[22] = target: MAPK14 (human) (UniProt Q16539)
[23] = target: PIP5K1A (human) (UniProt Q99755)
[24] = target: MAP2K7 (human) (UniProt O14733)
[25] = target: AURKA (human) (UniProt O14965)
[26] = target: CLK2 (human) (UniProt P49760)
[27] = target: CSNK2A1 (human) (UniProt P68400)
[28] = target: ROCK1 (human) (UniProt Q13464)
[29] = target: STK17B (human) (UniProt O94768)
[30] = target: BRSK1 (human) (UniProt Q8TDC3)
[31] = target: CDC2L2 (human) (UniProt Q9UQ88)
[32] = target: HIPK3 (human) (UniProt Q9H422)
[33] = target: EPHB6 (human) (UniProt O15197)
[34] = target: CSNK2A2 (human) (UniProt P19784)
[35] = target: MATK (human) (UniProt P42679)
[36] = target: RPS6KA3 KD1 (human) (UniProt P51812)
[37] = target: MYLK2 (human) (UniProt Q9H1R3)
[38] = target: BMPR1A (human) (UniProt P36894)
[39] = target: MAP2K6 (human) (UniProt P52564)
[40] = target: WEE2 (human) (UniProt P0C1S8)

Chain of PIP5K1A (human) (Q99755 whole entry, looked up): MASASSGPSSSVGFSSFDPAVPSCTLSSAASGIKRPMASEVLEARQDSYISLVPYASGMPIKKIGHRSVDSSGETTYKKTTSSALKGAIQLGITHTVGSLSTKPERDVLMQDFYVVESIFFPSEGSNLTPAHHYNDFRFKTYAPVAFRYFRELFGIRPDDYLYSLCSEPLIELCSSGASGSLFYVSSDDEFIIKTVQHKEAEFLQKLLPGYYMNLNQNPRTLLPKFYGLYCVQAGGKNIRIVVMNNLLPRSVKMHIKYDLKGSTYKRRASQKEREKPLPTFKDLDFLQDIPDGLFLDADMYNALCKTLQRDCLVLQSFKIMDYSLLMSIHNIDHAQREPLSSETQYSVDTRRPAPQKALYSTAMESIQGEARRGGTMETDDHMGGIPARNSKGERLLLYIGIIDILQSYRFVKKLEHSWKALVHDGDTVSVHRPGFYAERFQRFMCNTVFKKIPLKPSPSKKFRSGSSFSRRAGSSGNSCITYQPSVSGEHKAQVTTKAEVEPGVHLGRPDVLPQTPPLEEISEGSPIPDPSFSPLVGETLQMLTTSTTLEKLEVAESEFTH
Chain of RPS6KA2 KD1 (human) (Q15349 whole entry, looked up): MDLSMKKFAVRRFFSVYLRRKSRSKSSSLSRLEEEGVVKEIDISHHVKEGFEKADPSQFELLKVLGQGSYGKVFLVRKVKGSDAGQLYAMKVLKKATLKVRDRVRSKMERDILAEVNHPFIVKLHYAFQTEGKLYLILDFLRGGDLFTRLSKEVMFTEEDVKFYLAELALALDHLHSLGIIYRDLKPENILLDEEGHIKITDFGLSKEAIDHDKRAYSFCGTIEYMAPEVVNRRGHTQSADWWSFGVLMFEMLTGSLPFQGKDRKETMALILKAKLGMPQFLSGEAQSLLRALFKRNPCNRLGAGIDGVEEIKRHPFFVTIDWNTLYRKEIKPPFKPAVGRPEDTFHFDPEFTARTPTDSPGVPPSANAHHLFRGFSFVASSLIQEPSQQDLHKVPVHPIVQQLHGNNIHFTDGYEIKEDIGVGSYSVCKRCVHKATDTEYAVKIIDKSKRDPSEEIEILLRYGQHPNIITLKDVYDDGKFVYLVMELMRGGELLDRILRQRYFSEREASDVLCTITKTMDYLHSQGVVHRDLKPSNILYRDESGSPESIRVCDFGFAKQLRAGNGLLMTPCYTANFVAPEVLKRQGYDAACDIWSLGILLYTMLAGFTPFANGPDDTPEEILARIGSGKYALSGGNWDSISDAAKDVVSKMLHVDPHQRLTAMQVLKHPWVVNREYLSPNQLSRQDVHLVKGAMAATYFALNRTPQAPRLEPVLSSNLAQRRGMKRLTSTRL
Chain of MAP2K5 (human) (Q13163 whole entry, looked up): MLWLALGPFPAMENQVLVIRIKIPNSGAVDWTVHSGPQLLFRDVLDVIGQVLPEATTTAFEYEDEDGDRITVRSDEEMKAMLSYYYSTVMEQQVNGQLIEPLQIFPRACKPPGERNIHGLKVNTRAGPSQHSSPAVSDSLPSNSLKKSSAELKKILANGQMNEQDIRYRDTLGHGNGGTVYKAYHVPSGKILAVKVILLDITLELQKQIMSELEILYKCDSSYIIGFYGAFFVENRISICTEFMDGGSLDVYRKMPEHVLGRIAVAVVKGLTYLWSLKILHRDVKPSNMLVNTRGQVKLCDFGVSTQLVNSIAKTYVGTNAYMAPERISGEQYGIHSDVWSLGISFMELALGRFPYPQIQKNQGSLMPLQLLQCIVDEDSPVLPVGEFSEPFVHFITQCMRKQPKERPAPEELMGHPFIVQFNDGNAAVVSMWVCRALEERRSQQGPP
Chain of RIPK1 (human) (Q13546 whole entry, looked up): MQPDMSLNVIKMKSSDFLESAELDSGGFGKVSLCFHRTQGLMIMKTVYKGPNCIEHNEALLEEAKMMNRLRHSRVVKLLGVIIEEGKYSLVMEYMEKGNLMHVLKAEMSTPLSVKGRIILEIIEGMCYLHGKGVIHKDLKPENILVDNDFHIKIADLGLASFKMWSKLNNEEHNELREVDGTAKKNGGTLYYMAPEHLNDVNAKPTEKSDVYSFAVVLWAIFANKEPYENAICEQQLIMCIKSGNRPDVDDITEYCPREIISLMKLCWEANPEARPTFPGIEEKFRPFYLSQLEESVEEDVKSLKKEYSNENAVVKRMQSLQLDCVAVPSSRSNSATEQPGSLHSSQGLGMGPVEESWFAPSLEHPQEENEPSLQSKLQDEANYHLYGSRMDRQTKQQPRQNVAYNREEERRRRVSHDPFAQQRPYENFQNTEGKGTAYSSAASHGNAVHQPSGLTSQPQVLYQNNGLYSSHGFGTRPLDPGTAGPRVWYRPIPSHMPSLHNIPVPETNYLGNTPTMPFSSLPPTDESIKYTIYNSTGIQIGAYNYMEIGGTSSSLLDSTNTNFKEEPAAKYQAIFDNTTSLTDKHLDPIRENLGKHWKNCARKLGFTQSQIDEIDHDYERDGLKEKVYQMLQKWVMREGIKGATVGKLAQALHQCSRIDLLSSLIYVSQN
Chain of CSNK2A1 (human) (P68400 whole entry, looked up): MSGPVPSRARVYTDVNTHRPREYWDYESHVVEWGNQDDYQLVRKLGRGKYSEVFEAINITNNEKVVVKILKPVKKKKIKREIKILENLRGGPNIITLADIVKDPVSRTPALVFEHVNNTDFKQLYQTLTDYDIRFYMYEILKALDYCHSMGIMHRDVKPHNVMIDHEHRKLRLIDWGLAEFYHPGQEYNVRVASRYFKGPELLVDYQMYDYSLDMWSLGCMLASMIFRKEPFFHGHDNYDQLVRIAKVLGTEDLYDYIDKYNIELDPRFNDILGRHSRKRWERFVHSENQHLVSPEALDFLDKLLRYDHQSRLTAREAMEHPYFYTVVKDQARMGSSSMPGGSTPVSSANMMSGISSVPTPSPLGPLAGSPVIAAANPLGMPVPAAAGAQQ
Chain of RIOK2 (human) (Q9BVS4 whole entry, looked up): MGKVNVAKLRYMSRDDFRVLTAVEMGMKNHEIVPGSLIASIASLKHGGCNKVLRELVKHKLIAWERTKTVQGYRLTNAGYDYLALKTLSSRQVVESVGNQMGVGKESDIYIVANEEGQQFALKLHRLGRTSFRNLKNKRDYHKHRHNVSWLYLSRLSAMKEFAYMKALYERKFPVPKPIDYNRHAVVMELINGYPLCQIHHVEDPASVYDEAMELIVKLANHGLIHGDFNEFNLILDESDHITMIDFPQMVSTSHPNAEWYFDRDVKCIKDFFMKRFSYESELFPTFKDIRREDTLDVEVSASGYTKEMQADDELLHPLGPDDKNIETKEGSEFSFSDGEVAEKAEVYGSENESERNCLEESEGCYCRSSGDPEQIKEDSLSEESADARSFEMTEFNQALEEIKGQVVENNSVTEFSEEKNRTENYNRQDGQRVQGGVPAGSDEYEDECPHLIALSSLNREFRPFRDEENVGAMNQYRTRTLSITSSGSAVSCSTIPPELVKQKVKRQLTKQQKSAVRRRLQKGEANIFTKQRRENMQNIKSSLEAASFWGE
Chain of MATK (human) (P42679 whole entry, looked up): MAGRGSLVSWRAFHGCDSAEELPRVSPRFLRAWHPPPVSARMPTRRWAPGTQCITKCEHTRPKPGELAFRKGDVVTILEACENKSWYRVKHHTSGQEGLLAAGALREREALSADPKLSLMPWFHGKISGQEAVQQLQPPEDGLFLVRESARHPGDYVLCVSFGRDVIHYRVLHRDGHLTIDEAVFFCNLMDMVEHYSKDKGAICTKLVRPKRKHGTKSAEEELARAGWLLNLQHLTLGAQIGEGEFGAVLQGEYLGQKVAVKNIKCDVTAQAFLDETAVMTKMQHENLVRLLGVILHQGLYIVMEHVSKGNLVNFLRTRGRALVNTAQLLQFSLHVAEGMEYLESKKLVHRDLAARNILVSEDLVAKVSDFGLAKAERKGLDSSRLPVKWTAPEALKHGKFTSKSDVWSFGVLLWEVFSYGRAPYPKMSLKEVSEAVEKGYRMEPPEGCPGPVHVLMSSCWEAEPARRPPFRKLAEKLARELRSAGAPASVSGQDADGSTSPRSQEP
Chain of MAPK14 (human) (Q16539 whole entry, looked up): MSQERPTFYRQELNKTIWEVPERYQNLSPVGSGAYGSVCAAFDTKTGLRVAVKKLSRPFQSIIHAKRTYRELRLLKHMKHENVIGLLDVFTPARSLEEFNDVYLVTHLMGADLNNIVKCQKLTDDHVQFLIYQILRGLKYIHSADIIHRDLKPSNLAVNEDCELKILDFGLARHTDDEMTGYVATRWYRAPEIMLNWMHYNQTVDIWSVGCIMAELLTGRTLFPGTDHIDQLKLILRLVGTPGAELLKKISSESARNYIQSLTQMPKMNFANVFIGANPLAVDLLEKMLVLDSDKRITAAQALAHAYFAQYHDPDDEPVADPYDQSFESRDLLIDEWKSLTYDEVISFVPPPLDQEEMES
Chain of MAP2K6 (human) (P52564 whole entry, looked up): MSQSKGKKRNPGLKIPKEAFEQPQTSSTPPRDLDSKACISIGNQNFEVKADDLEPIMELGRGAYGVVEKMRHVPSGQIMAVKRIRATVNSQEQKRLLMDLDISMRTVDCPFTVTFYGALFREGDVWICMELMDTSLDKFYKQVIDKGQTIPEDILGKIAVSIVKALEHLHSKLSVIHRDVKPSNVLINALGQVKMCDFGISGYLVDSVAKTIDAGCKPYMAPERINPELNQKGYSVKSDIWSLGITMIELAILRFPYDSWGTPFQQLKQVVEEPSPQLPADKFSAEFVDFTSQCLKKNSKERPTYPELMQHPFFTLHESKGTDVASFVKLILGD
Chain of CSNK2A2 (human) (P19784 whole entry, looked up): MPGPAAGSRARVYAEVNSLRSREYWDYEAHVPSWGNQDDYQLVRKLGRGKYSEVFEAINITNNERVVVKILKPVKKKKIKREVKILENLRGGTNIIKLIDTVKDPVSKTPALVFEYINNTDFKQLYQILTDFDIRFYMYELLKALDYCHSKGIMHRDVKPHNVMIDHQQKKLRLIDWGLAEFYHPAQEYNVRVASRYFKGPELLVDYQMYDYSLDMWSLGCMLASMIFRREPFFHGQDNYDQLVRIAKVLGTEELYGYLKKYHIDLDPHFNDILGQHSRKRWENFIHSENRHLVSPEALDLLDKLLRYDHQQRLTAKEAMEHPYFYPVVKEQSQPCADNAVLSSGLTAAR

`N#Cc1cc(-c2ccnc(Nc3ccc(-n4cnc(-c5cccnc5)n4)cc3)n2)cc(N2CCOCC2)c1` showed a kinase still bound, per cent of control [1] of 100%, a kinase still bound, per cent of control [2] of 0% and a kinase still bound, per cent of control [3] of 49%. It also gave a kinase still bound, per cent of control [4] of 8.6%, a kinase still bound, per cent of control [5] of 1.4% and a kinase still bound, per cent of control [6] of 38%. The kinase still bound, per cent of control [7] was 32%, the kinase still bound, per cent of control [8] was 79% and the kinase still bound, per cent of control [9] was 73%. The kinase still bound, per cent of control [10] was 100%, the kinase still bound, per cent of control [11] was 0.9% and the kinase still bound, per cent of control [12] was 7.8%. It also gave a kinase still bound, per cent of control [13] of 5%, a kinase still bound, per cent of control [14] of 3.1% and a kinase still bound, per cent of control [15] of 12%. For the same compound, the kinase still bound, per cent of control [16] was 100%, the kinase still bound, per cent of control [17] was 100% and the kinase still bound, per cent of control [18] was 24%. The kinase still bound, per cent of control [19] was 37%, the kinase still bound, per cent of control [20] was 54% and the kinase still bound, per cent of control [21] was 12%. The kinase still bound, per cent of control [22] was 100%, the kinase still bound, per cent of control [23] was 17% and the kinase still bound, per cent of control [24] was 100%. For the same compound, the kinase still bound, per cent of control [25] was 93%, the kinase still bound, per cent of control [26] was 15% and the kinase still bound, per cent of control [27] was 2.2%. It also gave a kinase still bound, per cent of control [28] of 52%, a kinase still bound, per cent of control [29] of 56% and a kinase still bound, per cent of control [30] of 85%. It also gave a kinase still bound, per cent of control [31] of 25%, a kinase still bound, per cent of control [32] of 5.5% and a kinase still bound, per cent of control [33] of 14%. The kinase still bound, per cent of control [34] was 11%, the kinase still bound, per cent of control [35] was 62% and the kinase still bound, per cent of control [36] was 69%. The kinase still bound, per cent of control [37] was 56%, the kinase still bound, per cent of control [38] was 28% and the kinase still bound, per cent of control [39] was 41%. For the same compound, the kinase still bound, per cent of control [40] was 100%.
